The record followed here is PMC3914206.

Format in all cases: binding
Holding throughout (conditions): Compound Concentration 10 µM

Assay [1] has as its target T1, panel of 442 kinases (Homo sapiens, UniProt O75116).
T1 construct: purchased KINOMEscan
From the text:
(§1) We assessed the selectivity of members of this scaffold using the KINOMEscan methodology across a near comprehensive panel of 442 kinases [[18,27]].

Assay [2] concerns the target T2, panel of 442 kinases (Homo sapiens, UniProt P00533, G719S).
T2 construct: purchased KINOMEscan
Source text: as §1

The target of assay [3] is T3, panel of 442 kinases (Homo sapiens, UniProt P08581, M1250T).
T3 construct: purchased KINOMEscan
T3 sequence (P08581 25-1390 M1250T): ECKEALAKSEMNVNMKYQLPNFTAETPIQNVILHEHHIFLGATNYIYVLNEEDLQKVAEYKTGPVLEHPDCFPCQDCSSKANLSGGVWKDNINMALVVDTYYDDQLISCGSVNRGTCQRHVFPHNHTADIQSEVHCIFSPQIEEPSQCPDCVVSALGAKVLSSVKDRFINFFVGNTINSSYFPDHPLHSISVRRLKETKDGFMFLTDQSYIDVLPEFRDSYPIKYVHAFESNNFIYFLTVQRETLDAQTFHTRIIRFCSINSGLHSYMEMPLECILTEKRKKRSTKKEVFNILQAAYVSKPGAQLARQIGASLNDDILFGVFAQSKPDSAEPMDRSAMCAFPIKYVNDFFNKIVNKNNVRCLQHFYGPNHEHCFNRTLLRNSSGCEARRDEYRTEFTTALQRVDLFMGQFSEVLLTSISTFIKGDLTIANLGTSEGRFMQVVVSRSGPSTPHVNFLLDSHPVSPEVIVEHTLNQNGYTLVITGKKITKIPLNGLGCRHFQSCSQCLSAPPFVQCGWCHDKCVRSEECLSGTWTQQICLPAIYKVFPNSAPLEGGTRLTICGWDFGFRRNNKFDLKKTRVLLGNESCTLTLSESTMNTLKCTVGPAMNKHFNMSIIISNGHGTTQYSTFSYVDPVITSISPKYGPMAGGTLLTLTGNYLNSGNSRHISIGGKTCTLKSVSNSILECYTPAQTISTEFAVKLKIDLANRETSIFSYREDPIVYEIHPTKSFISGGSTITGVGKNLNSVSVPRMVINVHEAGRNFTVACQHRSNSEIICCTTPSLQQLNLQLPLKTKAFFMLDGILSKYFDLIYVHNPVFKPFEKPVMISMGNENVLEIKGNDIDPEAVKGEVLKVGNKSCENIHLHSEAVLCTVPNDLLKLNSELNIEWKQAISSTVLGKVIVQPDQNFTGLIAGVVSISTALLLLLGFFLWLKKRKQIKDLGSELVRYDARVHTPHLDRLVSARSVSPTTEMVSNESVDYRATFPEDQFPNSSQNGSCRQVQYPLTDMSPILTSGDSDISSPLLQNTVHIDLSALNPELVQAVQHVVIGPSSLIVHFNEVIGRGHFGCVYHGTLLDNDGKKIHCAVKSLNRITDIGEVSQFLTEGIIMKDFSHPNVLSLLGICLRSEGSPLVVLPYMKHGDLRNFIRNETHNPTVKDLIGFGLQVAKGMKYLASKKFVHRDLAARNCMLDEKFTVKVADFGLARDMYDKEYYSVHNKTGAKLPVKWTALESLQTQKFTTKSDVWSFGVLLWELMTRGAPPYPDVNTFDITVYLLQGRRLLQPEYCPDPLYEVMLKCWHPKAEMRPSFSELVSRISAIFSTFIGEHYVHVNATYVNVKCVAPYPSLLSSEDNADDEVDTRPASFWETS
Source text: as §1

T1 sequence (O75116 whole entry): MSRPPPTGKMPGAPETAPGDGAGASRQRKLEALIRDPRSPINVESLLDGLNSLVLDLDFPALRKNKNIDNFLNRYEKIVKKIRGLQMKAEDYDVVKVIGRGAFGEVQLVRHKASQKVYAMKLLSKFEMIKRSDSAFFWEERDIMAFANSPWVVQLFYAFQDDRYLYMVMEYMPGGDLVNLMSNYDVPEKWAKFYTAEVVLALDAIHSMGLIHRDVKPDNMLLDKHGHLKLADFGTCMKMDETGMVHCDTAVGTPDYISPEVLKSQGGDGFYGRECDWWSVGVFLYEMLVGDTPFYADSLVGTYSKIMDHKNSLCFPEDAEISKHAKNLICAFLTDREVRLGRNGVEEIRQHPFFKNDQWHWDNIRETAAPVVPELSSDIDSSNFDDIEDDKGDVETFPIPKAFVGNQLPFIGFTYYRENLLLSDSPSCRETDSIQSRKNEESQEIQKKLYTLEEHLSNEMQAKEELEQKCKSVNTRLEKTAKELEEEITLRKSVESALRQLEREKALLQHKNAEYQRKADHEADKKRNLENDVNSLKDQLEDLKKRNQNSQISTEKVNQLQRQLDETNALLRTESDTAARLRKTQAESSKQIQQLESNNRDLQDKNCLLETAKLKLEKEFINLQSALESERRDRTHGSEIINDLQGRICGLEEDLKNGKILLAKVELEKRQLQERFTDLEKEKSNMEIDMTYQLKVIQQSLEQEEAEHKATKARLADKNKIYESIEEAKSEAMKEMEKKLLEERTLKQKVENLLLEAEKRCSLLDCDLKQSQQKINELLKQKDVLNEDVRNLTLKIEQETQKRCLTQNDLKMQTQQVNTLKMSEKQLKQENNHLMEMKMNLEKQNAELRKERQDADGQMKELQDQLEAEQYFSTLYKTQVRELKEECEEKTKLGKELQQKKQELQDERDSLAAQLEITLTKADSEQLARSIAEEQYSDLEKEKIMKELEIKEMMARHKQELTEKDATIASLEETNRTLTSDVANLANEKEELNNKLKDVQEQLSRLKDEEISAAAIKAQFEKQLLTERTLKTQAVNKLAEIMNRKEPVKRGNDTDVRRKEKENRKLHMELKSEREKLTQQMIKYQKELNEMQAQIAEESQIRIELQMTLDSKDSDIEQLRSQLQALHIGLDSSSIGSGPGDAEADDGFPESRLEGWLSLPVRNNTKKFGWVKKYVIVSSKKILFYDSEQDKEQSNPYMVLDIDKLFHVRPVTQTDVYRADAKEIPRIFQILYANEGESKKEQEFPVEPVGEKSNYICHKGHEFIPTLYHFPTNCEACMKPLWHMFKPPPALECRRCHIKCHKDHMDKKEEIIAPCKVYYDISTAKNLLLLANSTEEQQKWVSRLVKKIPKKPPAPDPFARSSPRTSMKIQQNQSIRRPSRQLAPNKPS
T2 sequence (P00533 25-1210 G719S): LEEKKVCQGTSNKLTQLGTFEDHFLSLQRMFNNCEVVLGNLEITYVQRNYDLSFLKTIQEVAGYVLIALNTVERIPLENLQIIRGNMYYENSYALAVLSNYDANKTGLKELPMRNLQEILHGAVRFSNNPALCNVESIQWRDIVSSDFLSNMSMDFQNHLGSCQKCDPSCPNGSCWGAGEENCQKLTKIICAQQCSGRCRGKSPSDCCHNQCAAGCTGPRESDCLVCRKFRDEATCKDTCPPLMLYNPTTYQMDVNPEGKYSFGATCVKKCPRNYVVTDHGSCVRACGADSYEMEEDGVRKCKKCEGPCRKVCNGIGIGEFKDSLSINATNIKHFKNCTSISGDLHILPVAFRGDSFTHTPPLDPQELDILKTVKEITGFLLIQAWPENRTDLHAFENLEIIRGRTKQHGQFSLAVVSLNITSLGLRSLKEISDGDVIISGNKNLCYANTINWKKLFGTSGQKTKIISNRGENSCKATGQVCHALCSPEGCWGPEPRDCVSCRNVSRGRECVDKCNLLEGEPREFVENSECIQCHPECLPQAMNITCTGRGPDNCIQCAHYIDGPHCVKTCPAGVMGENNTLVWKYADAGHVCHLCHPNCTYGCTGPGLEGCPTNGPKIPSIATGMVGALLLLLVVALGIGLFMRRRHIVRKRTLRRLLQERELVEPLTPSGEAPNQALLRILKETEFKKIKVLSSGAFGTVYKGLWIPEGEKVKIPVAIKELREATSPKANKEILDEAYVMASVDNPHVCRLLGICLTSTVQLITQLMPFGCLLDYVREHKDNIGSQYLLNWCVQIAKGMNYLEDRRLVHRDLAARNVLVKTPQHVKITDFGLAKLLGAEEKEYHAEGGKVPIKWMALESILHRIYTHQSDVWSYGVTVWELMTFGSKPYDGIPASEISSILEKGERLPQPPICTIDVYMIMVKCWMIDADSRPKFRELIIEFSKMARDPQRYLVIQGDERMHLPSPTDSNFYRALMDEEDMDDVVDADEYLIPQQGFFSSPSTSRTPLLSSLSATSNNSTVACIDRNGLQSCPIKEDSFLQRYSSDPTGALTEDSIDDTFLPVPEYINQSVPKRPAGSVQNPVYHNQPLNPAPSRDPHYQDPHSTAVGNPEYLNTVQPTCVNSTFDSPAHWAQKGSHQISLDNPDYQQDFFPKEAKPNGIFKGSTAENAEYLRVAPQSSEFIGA

In the case of `COc1cc(C(=O)N2CCC(N3CCN(C)CC3)CC2)ccc1Nc1ncc2c(n1)N(C)c1ccccc1C(=O)N2C` [15 (LRRK2-IN-1)], the “KINOMEscan: ROCK2” value in assay [1] was determined as 87. In addition, the “KINOMEscan: EGFR(G719S)” value in assay [2] was determined as 86. Moreover, the “KINOMEscan: MET(M1250T)” value in assay [3] was 96.

With `COc1cc(C(=O)N2CCC(N3CCN(C)CC3)CC2)ccc1Nc1ncc2c(n1)N1CCc3cccc(c31)C(=O)N2C` [Compound 24], the “KINOMEscan: ROCK2” value in assay [1] is 65. For the same compound, the “KINOMEscan: EGFR(G719S)” value in assay [2] was 81. Moreover, the “KINOMEscan: MET(M1250T)” value in assay [3] was found to be 88.

`COc1cc(C(=O)N2CCC(N3CCN(C)CC3)CC2)ccc1Nc1ncc2c(n1)N(C1CCCC1)c1ccccc1C(=O)N2C` [Compound 25, 11-cyclopentyl-2-((2-methoxy-4-(4-(4-methylpiperazin-1-yl)piperidine-1-carbonyl)phenyl)amino)-5-methyl-5H-benzo[e]pyrimido[5,4-b][1,4]diazepin-6(11H)-one]: in assay [1], the “KINOMEscan: ROCK2” value stood at 79. Also, the “KINOMEscan: EGFR(G719S)” value in assay [2] amounted to 86. The “KINOMEscan: MET(M1250T)” value in assay [3] amounted to 95.

`CCOc1cc(C(=O)N2CCC(N3CCN(C)CC3)CC2)ccc1Nc1ncc2c(n1)N(C1CCCC1)c1ccccc1C(=O)N2C` [Compound 26]: the “KINOMEscan: ROCK2” value in assay [1] is 83. For the same compound, the “KINOMEscan: EGFR(G719S)” value in assay [2] came to 96. The “KINOMEscan: MET(M1250T)” value in assay [3] turned out to be 100.
